Publication PMC4438668, “Quantitative High-Throughput Identification of Drugs as Modulators of Human Constitutive Androstane Receptor” (Scientific Reports, 2015)
Entries after “also recorded” stand apart in the source; their conditions may differ.

Assays:
human CAR (hCAR) [1] = molecular target: T1, human CAR (hCAR) (Homo sapiens, UniProt Q14994); assay: hCAR luciferase reporter qHTS, agonist mode (HepG2-CYP2B6-hCAR cells, PK11195 co-treatment); conditions: for EC50 / Follow-up Confirmation Efficacy / Primary Screen Efficacy: agonist mode; for Follow-up Confirmation Efficacy: relative to CITCO (100%); for Primary Screen Efficacy: relative to CITCO Emax (100%)
T1 sequence (Q14994 1-348 isoform Q14994-2): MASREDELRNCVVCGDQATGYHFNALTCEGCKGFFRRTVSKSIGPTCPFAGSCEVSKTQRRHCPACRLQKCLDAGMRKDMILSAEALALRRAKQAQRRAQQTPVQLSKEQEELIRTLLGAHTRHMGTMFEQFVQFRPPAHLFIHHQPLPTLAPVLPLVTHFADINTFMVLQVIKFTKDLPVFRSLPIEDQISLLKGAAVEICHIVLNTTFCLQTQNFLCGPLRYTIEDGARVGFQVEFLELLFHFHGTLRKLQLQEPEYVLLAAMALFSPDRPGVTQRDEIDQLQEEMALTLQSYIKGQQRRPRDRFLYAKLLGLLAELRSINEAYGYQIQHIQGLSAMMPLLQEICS

EYFP-hCAR = molecular target: T2, EYFP-hCAR (Homo sapiens, UniProt Q14994); assay: Nuclear translocation of Ad/EYFP-hCAR in human primary hepatocytes; format: cell-based; conditions: HPH
T2 construct: expressed in transfected cells; host or cells: human primary hepatocytes infected with Ad/EYFP-hCAR
T2 sequence (Q14994 1-348 isoform Q14994-2): T1 sequence (Q14994 1-348 isoform Q14994-2)
Protocol: A recombinant adenovirus expressing enhanced yellow fluorescent protein-tagged hCAR (Ad/EYFP-hCAR) was generated as described previously. Hepatocytes cultured in 96-well collagen-coated plates in serum free Williams’ E medium were infected with Ad/EFYP-hCAR (1 μl/well) for 12 h before treatment with the vehicle control, DMSO (0.1%), PB (1 mM), and selected compounds for another 8 h. Subcellular localization of hCAR was visualized using a Nikon (Tokyo, Japan) C1-LU3 instrument based on an inverted Nikon Eclipse TE2000 microscope.

CYP2B6 = CYP2B6 mRNA expression in HPH (real-time PCR); conditions: HPH; for Induction of hCAR target genes: target genes CYP2B6 and CYP3A4; for Effect on CYP2B6 mRNA expression: 24 h, vs vehicle control (0.1% DMSO)
hPXR = molecular target: T3, hPXR (Homo sapiens, UniProt O75469); assay: Transient hPXR luciferase assay in HepG2 cells (CYP2B6-2.2 kb reporter); format: cell-based; conditions: HepG2, 24 h, in the presence or absence of rifampicin (10 μM)
T3 construct: expressed in transfected cells; host or cells: HepG2 (transient transfection)
T3 sequence (O75469 1-434): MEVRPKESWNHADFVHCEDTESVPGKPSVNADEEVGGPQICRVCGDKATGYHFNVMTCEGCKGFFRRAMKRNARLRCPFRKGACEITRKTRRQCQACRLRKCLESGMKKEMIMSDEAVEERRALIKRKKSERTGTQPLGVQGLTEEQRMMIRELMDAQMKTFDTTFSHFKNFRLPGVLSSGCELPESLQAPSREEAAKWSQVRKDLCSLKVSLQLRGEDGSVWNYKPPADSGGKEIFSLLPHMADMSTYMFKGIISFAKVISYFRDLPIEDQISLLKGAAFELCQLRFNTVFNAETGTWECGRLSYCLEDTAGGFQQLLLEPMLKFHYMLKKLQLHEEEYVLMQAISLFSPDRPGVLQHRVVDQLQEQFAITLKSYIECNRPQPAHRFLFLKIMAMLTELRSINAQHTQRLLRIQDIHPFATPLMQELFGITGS
Protocol: HepG2 cells cultured in a 24-well plate were co-transfected with the CYP2B6-2.2 kb reporter and hPXR expression vectors using a Lipofectamine® 2000 Transfection Kit (Life Technologies) following the manufacturer’s instruction. […] Cell lysates were assayed for firefly luciferase activities normalized against the activities of co-transfected Renilla luciferase using a Dual-Luciferase Kit (Promega). Data were represented as mean±SD of three individual transfections.

CAR, CYP2B6, or CYP3A4 = conditions: previously known; reference not given; cited from earlier work
human CAR (hCAR) [2] = molecular target: T1, human CAR (hCAR); assay: hCAR luciferase reporter qHTS, antagonist mode (HepG2-CYP2B6-hCAR cells, CITCO co-treatment); conditions: for IC50 / Follow-up Confirmation Efficacy / Primary Screen Efficacy: antagonist mode; for Follow-up Confirmation Efficacy / Primary Screen Efficacy: relative to PK11195 (100%);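 as to all read-outs here: stable HepG2 line carrying hCAR plus a CYP2B6 promoter (PBREM/XREM) luciferase reporter, 1536-well format, 24 h compound exposure at 37 °C, then luminescence read with ONE-Glo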
CYP3A4 = CYP3A4 mRNA expression in HPH (real-time PCR); format: cell-based, human; conditions: HPH, 24 h, vs vehicle control (0.1% DMSO)
HepG2-CYP2B6-hCAR cells = assay: Cell viability assay (CellTiter-Glo ATP quantitation); format: cell-based, human; set-up: key to Cytotoxicity (activity call): Inactive: considered inactive if efficacy is less than 30%; conditions: 24 h
Protocol: The potential cytotoxicity of the NPC compounds in HepG2-CYP2B6-hCAR cells was measured using a luciferase-coupled ATP quantitation assay (CellTiter-Glo viability assay, Promega). The change of intracellular ATP content indicates the number of metabolically competent cells. The cells were seeded at 2,500 cells/5 μl in 1536-well plates and were exposed to each test compound at concentrations and treatment duration as previously mentioned. The assay plates were incubated for 24 h at 37 °C, followed by the addition of 4 μl/well of CellTiter-Glo reagent. After 30 min incubation at RT, the luminescence intensity of the plates was measured using a ViewLux plate reader.

[3] = Follow-up Confirmation Potency (EC50), follow-up cherry-pick, 11-point titration
[4] = Primary Screen Potency (EC50), primary qHTS, 2.5 μM PK11195, 24 h
[5] = Follow-up Confirmation Potency (IC50), follow-up cherry-pick, 11-point titration
[6] = Primary Screen Potency (IC50), primary qHTS, 0.1 μM CITCO, 24 h

Compound | EC50 (human CAR (hCAR) [1]; [3]) [µM] | EC50 (human CAR (hCAR) [1]; [4]) [µM] | Follow-up Confirmation Efficacy (human CAR (hCAR) [1]; follow-up cherry-pick) [%] | Primary Screen Efficacy (human CAR (hCAR) [1]; primary qHTS) [%] | Known modulator of CAR, CYP2B6, or CYP3A4? (CAR, CYP2B6, or CYP3A4) | IC50 (human CAR (hCAR) [2]; [5]) [µM] | IC50 (human CAR (hCAR) [2]; [6]) [µM] | Follow-up Confirmation Efficacy (human CAR (hCAR) [2]; follow-up cherry-pick) [%] | Primary Screen Efficacy (human CAR (hCAR) [2]; primary qHTS) [%] | Effect on CYP3A4 mRNA expression (CYP3A4) | Cytotoxicity (activity call) (HepG2-CYP2B6-hCAR cells) | further results
Nc1ccc(Cl)cc1C(=O)c1ccccc1F [2-Amino-5-chloro-2’-fluorobenzophenone] | 15.6 | 3.4 | 67 | 60 |  |  |  |  |  |  |  | hCAR nuclear translocation (in words) (EYFP-hCAR; listed as ACFB): didn’t translocate hCAR; also recorded: neither translocated hCAR; Induction of hCAR target genes (CYP2B6; listed as ACFB): negligible induction; also recorded: nor induced the expression of its target genes
Nc1ncnc2c1ncn2CCOCP(=O)(O)O [Adefovir] |  |  |  |  | CYP3A4 inhibitor | 0.77 | 0.76 | -87 | -102 | negligible effect | Inactive | Effect on basal and RIF-induced PXR activity (hPXR): no effects on either basal or RIF-induced hPXR activation
CN1CCc2cccc3c2[C@H]1Cc1ccc(O)c(O)c1-3 [Apomorphine] | 13.3 | 19 | 38 | 21 |  |  |  |  |  |  |  | hCAR nuclear translocation (in words) (EYFP-hCAR): didn’t translocate hCAR; also recorded: neither translocated hCAR; Induction of hCAR target genes (CYP2B6): negligible induction; also recorded: nor induced the expression of its target genes
CCO[C@H]1O[C@@H]2O[C@@]3(C)CC[C@H]4[C@H](C)CC[C@@H]([C@H]1C)[C@@]24OO3 [Artemotil] | 5 | 2.1 | 71 | 33 | Activates CAR and Induces CYP2B6 |  |  |  |  | markedly enhanced |  | Effect on CYP2B6 mRNA expression (CYP2B6): significantly induced
COc1cc(Nc2c(C#N)cnc3cc(OCCCN4CCN(C)CC4)c(OC)cc23)c(Cl)cc1Cl [Bosutinib] |  |  |  |  |  |  |  |  |  |  | Inactive | 
Clc1ccc(-c2nc3sccn3c2C=NOCc2ccc(Cl)c(Cl)c2)cc1 [CITCO, 6-(4-chlorophenyl) imidazo[2,1-b][1,3]-thiazole-5-carbaldehyde-O-(3,4-dichlorobenzyl)oxime] |  |  |  |  |  |  |  |  |  |  |  | Effect on hCAR activity (agonist mode optimization, Fig. 1A) (human CAR (hCAR) [1]; PK11195 at 2.5 μM and 5.0 μM, CITCO co-treated with PK11195): restored the hCAR activity in a concentration-dependent manner; Effect on hCAR activity (antagonist mode optimization, Fig. 4A) (human CAR (hCAR) [2]; PK11195 at varying concentrations, CITCO co-treatment at 75 nM, 100 nM, or 200 nM): moderate but concentration-dependent increase of the basal activity of hCAR
COc1cc(N)c(Cl)cc1C(=O)NC1CCN(Cc2ccccc2)CC1 [Clebopride] | 9.4 | 7.6 | 80 | 52 |  |  |  |  |  | markedly enhanced |  | Effect on CYP2B6 mRNA expression (CYP2B6): significantly induced; also recorded: potent induction exceeding that of CITCO
C[C@H]1O[C@@H](O[C@H]2[C@@H](O)C[C@H](O[C@H]3[C@@H](O)C[C@H](O[C@H]4CC[C@@]5(C)[C@H](CC[C@@H]6[C@@H]5CC[C@]5(C)[C@@H](C7=CC(=O)OC7)CC[C@]65O)C4)O[C@@H]3C)O[C@@H]2C)C[C@H](O)[C@@H]1O [Digitoxin] |  |  |  |  |  | 0.29 | 0.08 | -98 | -76 |  | Inactive | 
CO[C@@]12[C@H](COC(N)=O)C3=C(C(=O)C(C)=C(N)C3=O)N1C[C@@H]1N[C@@H]12 [Mitomycin C] |  |  |  |  | PXR deactivator | 0.75 | 0.43 | -110 | -91 |  | Inactive | Identified as hCAR antagonist/deactivator in the qHTS (human CAR (hCAR) [2]; primary qHTS of 2816 NPC compounds): antagonist of hCAR
Cc1c(O)cccc1C(=O)N[C@@H](CSc1ccccc1)[C@H](O)CN1C[C@H]2CCCC[C@H]2C[C@H]1C(=O)NC(C)(C)C [Nelfinavir] |  |  |  |  |  | 11 | 9.52 | -101 | -88 | negligible effect | Inactive | Effect on basal and RIF-induced PXR activity (hPXR): induced hPXR activation to an extent closer to that of RIF
